Assay: xn = mol fraction of the nth substance listed
Conditions: Liquid

Cc1ccccc1 [toluene] + CCCO
mass density [kg/m3]
Conditions	100 kPa	5000 kPa	10000 kPa	15000 kPa	20000 kPa	25000 kPa	30000 kPa
303.15 K, x2 = 0	857.4	861.3	865.1	868.7	872.3	875.6	878.9
303.15 K, x2 = 0.2	847.5	851.5	855.3	859	862.5	865.9	869.2
303.15 K, x2 = 0.4	837.2	841.2	845	848.7	852.2	855.7	858.9
303.15 K, x2 = 0.6	825.9	829.9	833.7	837.4	840.9	844.3	847.5
303.15 K, x2 = 0.8	812.4	816.4	820.2	823.8	827.3	830.7	834
313.15 K, x2 = 0	848.1	852.1	856.2	860	863.7	867.2	870.7
313.15 K, x2 = 0.2	838.1	842.2	846.3	850.2	853.9	857.5	860.9
313.15 K, x2 = 0.4	828	832	836.1	840	843.7	847.3	850.7
313.15 K, x2 = 0.6	816.9	821	825	828.9	832.6	836.1	839.5
313.15 K, x2 = 0.8	803.8	807.8	811.9	815.8	819.4	823	826.3

Reference: the NIST ThermoML archive (doi:10.1021/je049685z)
